# Laboratory results published in PubChem BioAssay (NCI).
#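 The compound was tested at five concentrations on cells cultured in 96-well plates, with a 48-hour exposure period. Here, GI50 denotes the concentration required for 50% inhibition of growth. The concentration for full growth arrest is given as TGI.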
# Tests used:
# Test in all cases: NCI tumour cell line growth inhibition, 48 h
# [1] = system: SNB-19 CNS
# [2] = system: OVCAR-5 ovarian
# [3] = system: RPMI-8226 leukemia
# [4] = system: IGROV1 ovarian
# [5] = system: UACC-62 melanoma
# [6] = system: RXF 393 renal
# [7] = system: NCI-H460 lung
# [8] = system: TK-10 renal
# [9] = system: A498 renal
# [10] = system: SNB-75 CNS
# [11] = system: KM12 colon
# [12] = system: SW-620 colon
# [13] = system: T-47D breast
# [14] = system: A549 NSCLC
# [15] = system: NCI-H23 lung
# [16] = system: NCI-H226 lung
# [17] = system: OVCAR-3 ovarian
# [18] = system: SK-MEL-28 melanoma
# [19] = system: EKVX NSCLC
# [20] = system: ACHN renal
# [21] = system: HT29 colon
# [22] = system: HS 578T breast
# [23] = system: COLO 205 colon
# [24] = system: SF-268 CNS
# [25] = system: HL-60(TB) leukemia
# [26] = system: CAKI-1 renal
# [27] = system: OVCAR-4 ovarian
# [28] = system: MALME-3M melanoma
# [29] = system: HOP-62 NSCLC
# [30] = system: MCF7 breast
# [31] = system: LOX IMVI melanoma
# [32] = system: SF-539 CNS
# [33] = system: BT-549 breast
# [34] = system: CCRF-CEM leukemia
# [35] = system: HCC-2998 colon
# [36] = system: SN12C renal
# [37] = system: HCT-116 colon
# [38] = system: NCI-H522 lung
# [39] = system: U251 CNS
# [40] = system: HOP-92 NSCLC
# [41] = system: SK-OV-3 ovarian
# [42] = system: SK-MEL-2 melanoma
# [43] = system: SR leukemia
# [44] = system: K-562 leukemia
# [45] = system: SF-295 CNS
# [46] = system: SK-MEL-5 melanoma
# [47] = system: HCT-15 colon
# [48] = system: MDA-MB-435
# [49] = system: MOLT-4 leukemia
# [50] = system: M14 melanoma
# [51] = system: 786-0 renal
# [52] = system: OVCAR-8 ovarian
# [53] = system: UO-31 renal
# [54] = system: MDA-MB-231 breast
# [55] = system: NCI/ADR-RES ovarian
# [56] = system: DU-145 prostate
# [57] = system: UACC-257 melanoma
# [58] = system: PC-3 prostate
smiles,measurement,setting,value
COc1cc2ncn(-c3cc(OCc4ccccc4S(C)(=O)=O)c(C#N)s3)c2cc1OC,GI50,[1],15.1 µM
same,TGI,[1],> 25 µM
same,GI50,[2],> 25 µM
same,TGI,[2],> 25 µM
same,GI50,[3],> 25 µM
same,TGI,[3],> 25 µM
same,GI50,[4],> 25 µM
same,TGI,[4],> 25 µM
same,GI50,[5],> 25 µM
same,TGI,[5],> 25 µM
same,GI50,[6],> 14.9 µM
same,TGI,[6],> 25 µM
same,GI50,[7],> 25 µM
same,TGI,[7],> 25 µM
same,GI50,[8],> 25 µM
same,TGI,[8],> 25 µM
same,GI50,[9],> 25 µM
same,TGI,[9],> 25 µM
same,GI50,[10],8.19 µM
same,TGI,[10],> 22.6 µM
same,GI50,[11],> 25 µM
same,TGI,[11],> 25 µM
same,GI50,[12],> 25 µM
same,TGI,[12],> 25 µM
same,GI50,[13],> 25 µM
same,TGI,[13],> 25 µM
same,GI50,[14],> 25 µM
same,TGI,[14],> 25 µM
same,GI50,[15],> 25 µM
same,TGI,[15],> 25 µM
same,GI50,[16],> 25 µM
same,TGI,[16],> 25 µM
same,GI50,[17],> 25 µM
same,TGI,[17],> 25 µM
same,GI50,[18],> 25 µM
same,TGI,[18],> 25 µM
same,GI50,[19],> 25 µM
same,TGI,[19],> 25 µM
same,GI50,[20],> 25 µM
same,TGI,[20],> 25 µM
same,GI50,[21],> 25 µM
same,TGI,[21],> 25 µM
same,GI50,[22],> 17.9 µM
same,TGI,[22],> 25 µM
same,GI50,[23],> 25 µM
same,TGI,[23],> 25 µM
same,GI50,[24],> 22.7 µM
same,TGI,[24],> 25 µM
same,GI50,[25],> 25 µM
same,TGI,[25],> 25 µM
same,GI50,[26],> 25 µM
same,TGI,[26],> 25 µM
same,GI50,[27],> 25 µM
same,TGI,[27],> 25 µM
same,GI50,[28],> 25 µM
same,TGI,[28],> 25 µM
same,GI50,[29],> 10.8 µM
same,TGI,[29],> 20.8 µM
same,GI50,[30],> 25 µM
same,TGI,[30],> 25 µM
same,GI50,[31],> 25 µM
same,TGI,[31],> 25 µM
same,GI50,[32],> 25 µM
same,TGI,[32],> 25 µM
same,GI50,[33],> 25 µM
same,TGI,[33],> 25 µM
same,GI50,[34],> 25 µM
same,TGI,[34],> 25 µM
same,GI50,[35],> 25 µM
same,TGI,[35],> 25 µM
same,GI50,[36],> 25 µM
same,TGI,[36],> 25 µM
same,GI50,[37],> 25 µM
same,TGI,[37],> 25 µM
same,GI50,[38],> 25 µM
same,TGI,[38],> 25 µM
same,GI50,[39],> 22.3 µM
same,TGI,[39],> 25 µM
same,GI50,[40],> 14.2 µM
same,TGI,[40],> 25 µM
same,GI50,[41],> 16.1 µM
same,TGI,[41],> 25 µM
same,GI50,[42],> 23.4 µM
same,TGI,[42],> 25 µM
same,GI50,[43],> 25 µM
same,TGI,[43],> 25 µM
same,GI50,[44],> 25 µM
same,TGI,[44],> 25 µM
same,GI50,[45],> 25 µM
same,TGI,[45],> 25 µM
same,GI50,[46],> 25 µM
same,TGI,[46],> 25 µM
same,GI50,[47],> 25 µM
same,TGI,[47],> 25 µM
same,GI50,[48],> 25 µM
same,TGI,[48],> 25 µM
same,GI50,[49],> 25 µM
same,TGI,[49],> 25 µM
same,GI50,[50],> 25 µM
same,TGI,[50],> 25 µM
same,GI50,[51],> 25 µM
same,TGI,[51],> 25 µM
same,GI50,[52],> 23.1 µM
same,TGI,[52],> 25 µM
same,GI50,[53],> 25 µM
same,TGI,[53],> 25 µM
same,GI50,[54],> 25 µM
same,TGI,[54],> 25 µM
same,GI50,[55],> 25 µM
same,TGI,[55],> 25 µM
same,GI50,[56],> 25 µM
same,TGI,[56],> 25 µM
same,GI50,[57],> 25 µM
same,TGI,[57],> 25 µM
same,GI50,[58],> 25 µM
same,TGI,[58],> 25 µM
